Test results taken from patent US20090155209A1, “NOVEL MACROCYCLIC INHIBITORS OF HEPATITIS C VIRUS REPLICATION” (priority 2007, published 2009).

Assays:
[1] = target: T1, NS3-NS4 (Hepatitis C virus genotype 1a, UniProt P27958); test: NS3-NS4 activity, IC50 (Example 37, Table 8); format: biochemical
[2] = target: T1, NS3-NS4; test: cell-based; conditions: EC50, NS3-NS4 activity

T1 sequence (P27958 1027-1657): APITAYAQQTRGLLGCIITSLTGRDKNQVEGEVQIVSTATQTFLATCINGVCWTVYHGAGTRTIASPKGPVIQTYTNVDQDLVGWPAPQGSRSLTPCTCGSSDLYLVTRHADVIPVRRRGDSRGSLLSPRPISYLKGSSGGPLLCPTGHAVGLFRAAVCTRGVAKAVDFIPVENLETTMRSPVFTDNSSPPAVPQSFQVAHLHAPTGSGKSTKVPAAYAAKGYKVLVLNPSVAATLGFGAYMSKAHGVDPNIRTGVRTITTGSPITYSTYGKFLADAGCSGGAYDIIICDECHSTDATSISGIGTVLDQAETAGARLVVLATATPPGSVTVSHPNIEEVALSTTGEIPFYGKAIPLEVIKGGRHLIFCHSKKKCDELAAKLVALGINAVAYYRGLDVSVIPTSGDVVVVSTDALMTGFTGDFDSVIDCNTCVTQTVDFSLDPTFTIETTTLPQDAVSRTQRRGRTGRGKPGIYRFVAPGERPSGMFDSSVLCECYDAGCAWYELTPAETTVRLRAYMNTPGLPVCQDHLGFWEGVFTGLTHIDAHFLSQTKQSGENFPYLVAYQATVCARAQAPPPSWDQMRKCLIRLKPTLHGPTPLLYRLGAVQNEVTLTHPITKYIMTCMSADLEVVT
T1 sequence (P27958 1658-1711): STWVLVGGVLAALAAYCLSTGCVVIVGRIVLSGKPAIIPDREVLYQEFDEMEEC

| SMILES | IC50 [1] | EC50 [2] |
| --- | --- | --- |
| CC(C)(C)OC(=O)N[C@H]1CCCCC/C=C\C2CC2(C(=O)NOc2ccccc2)NC(=O)[C@@H]2C[C@@H](OC(=O)N3Cc4cccc(F)c4C3)CN2C1=O (stereo in doubt) [Compound 101, (2R,6S,13aS,14aR,16aS,Z)-6-(tert-butoxycarbonylamino)-5,16-dioxo-14a-(phenoxycarbamoyl)-1,2,3,5,6,7,8,9,10,11,13a,14,14a,15,16,16a-hexadecahydrocyclopropa[e]pyrrolo[1,2-a][1,4]diazacyclopentadecin-2-yl 4-fluoroisoindoline-2-carboxylate] | < 0.1 µM | < 0.1 µM |
| CC(C)(C)OC(=O)N[C@H]1CCCCC/C=C\[C@@H]2C[C@@]2(C(=O)NOCC2CC2)NC(=O)[C@@H]2C[C@@H](OC(=O)N3Cc4cccc(F)c4C3)CN2C1=O [Compound 102, (2R,6S,13aS,14aR,16aS,Z)-6-(tert-butoxycarbonylamino)-14a-(cyclopropylmethoxycarbamoyl)-5,16-dioxo-1,2,3,5,6,7,8,9,10,11,13a,14,14a,15,16,16a-hexadecahydrocyclopropa[e]pyrrolo[1,2-a][1,4]diazacyclopentadecin-2-yl 4-fluoroisoindoline-2-carboxylate] | – | < 0.1 µM |
| CC(C)(C)ONC(=O)[C@@]12C[C@H]1/C=C\CCCCC[C@H](NC(=O)OC(C)(C)C)C(=O)N1C[C@H](OC(=O)N3Cc4cccc(F)c4C3)C[C@H]1C(=O)N2 [Compound 103, (2R,6S,13aS,14aR,16aS,Z)-14a-(tert-butoxycarbamoyl)-6-(tert-butoxycarbonylamino)-5,16-dioxo-1,2,3,5,6,7,8,9,10,11,13a,14,14a,15,16,16a-hexadecahydrocyclopropa[e]pyrrolo[1,2-a][1,4]diazacyclopentadecin-2-yl 4-fluoroisoindoline-2-carboxylate] | – | < 0.1 µM |
| CONC(=O)[C@@]12C[C@H]1/C=C\CCCCC[C@H](NC(=O)OC(C)(C)C)C(=O)N1C[C@H](OC(=O)N3Cc4cccc(F)c4C3)C[C@H]1C(=O)N2 [Compound 104, (2R,6S,13aS,14aR,16aS,Z)-6-(tert-butoxycarbonylamino)-14a-(methoxycarbamoyl)-5,16-dioxo-1,2,3,5,6,7,8,9,10,11,13a,14,14a,15,16,16a-hexadecahydrocyclopropa[e]pyrrolo[1,2-a][1,4]diazacyclopentadecin-2-yl 4-fluoroisoindoline-2-carboxylate] | < 0.1 µM | 1 to 10 µM |
| CC(C)(C)OC(=O)N[C@H]1CCCCC/C=C\[C@@H]2C[C@@]2(C(=O)NOCc2ccc(C(F)(F)F)cc2)NC(=O)[C@@H]2C[C@@H](OC(=O)N3Cc4cccc(F)c4C3)CN2C1=O [Compound 105, (2R,6S,13aS,14aR,16aS,Z)-6-(tert-butoxycarbonylamino)-5,16-dioxo-14a-(4-(trifluoromethyl)benzyloxycarbamoyl)-1,2,3,5,6,7,8,9,10,11,13a,14,14a,15,16,16a-hexadecahydrocyclopropa[e]pyrrolo[1,2-a][1,4]diazacyclopentadecin-2-yl 4-fluoroisoindoline-2-carboxylate] | < 0.1 µM | 10 to 50 µM |
| CC(C)(C)OC(=O)N[C@H]1CCCCC/C=C\[C@@H]2C[C@@]2(C(=O)NOCCO)NC(=O)[C@@H]2C[C@@H](OC(=O)N3Cc4cccc(F)c4C3)CN2C1=O [Compound 106] | < 0.1 µM | 0.1 to 1 µM |
| CC(C)(C)OC(=O)N[C@H]1CCCCC/C=C\[C@@H]2C[C@@]2(C(=O)NOCc2ccccc2)NC(=O)[C@@H]2C[C@@H](OC(=O)N3Cc4cccc(F)c4C3)CN2C1=O [Compound 107] | < 0.1 µM | 1 to 10 µM |
| CC(C)(C)ONC(=O)[C@@]12C[C@H]1/C=C\CCCCC[C@H](NC(=O)OC(C)(C)C)C(=O)N1C[C@H](OC(=O)N3Cc4cccc(Cl)c4C3)C[C@H]1C(=O)N2 [Compound 108] | < 0.1 µM | < 0.1 µM |
| C[C@H](O)CONC(=O)[C@@]12C[C@H]1/C=C\CCCCC[C@H](NC(=O)OC(C)(C)C)C(=O)N1C[C@H](OC(=O)N3Cc4cccc(F)c4C3)C[C@H]1C(=O)N2 [Compound 110] | < 0.1 µM | < 0.1 µM |
| CC(C)c1cnc(N[C@H]2CCCCC/C=C\[C@@H]3C[C@@]3(C(=O)NS(=O)(=O)C3CC3)NC(=O)[C@@H]3C[C@@H](OC(=O)N4Cc5cccc(F)c5C4)CN3C2=O)s1 [Compound 201, (2R,6S,13aS,14aR,16aS,Z)-14a-(cyclopropylsulfonylcarbamoyl)-6-(5-isopropylthiazol-2-ylamino)-5,16-dioxo-1,2,3,5,6,7,8,9,10,11,13a,14,14a,15,16,16a-hexadecahydrocyclopropa[e]pyrrolo[1,2-a][1,4]diazacyclopentadecin-2-yl 4-fluoroisoindoline-2-carboxylate] | < 0.1 µM | < 0.1 µM |
| CC(C)(C)O[C@@H]1C[C@H]2C(=O)N[C@]3(C(=O)NS(=O)(=O)C4CC4)C[C@H]3/C=C\CCCCC[C@H](Nc3ncc(-c4ccccc4)s3)C(=O)N2C1 [Compound 202, (2R,6S,13aS,14aR,16aS,Z)-2-tert-butoxy-N-(cyclopropylsulfonyl)-5,16-dioxo-6-(5-phenylthiazol-2-ylamino)-1,2,3,5,6,7,8,9,10,11,13a,14,14a,15,16,16a-hexadecahydrocyclopropa[e]pyrrolo[1,2-a][1,4]diazacyclopentadecine-14a-carboxamide] | < 0.1 µM | 0.1 to 1 µM |
| CC(=O)O[C@@H]1C[C@H]2C(=O)N[C@]3(C(=O)NS(=O)(=O)C4CC4)C[C@H]3/C=C\CCCCC[C@H](Nc3ncc(-c4ccccc4)s3)C(=O)N2C1 [Compound 203, (2R,6S,13aS,14aR,16aS,Z)-14a-(cyclopropylsulfonylcarbamoyl)-5,16-dioxo-6-(5-phenylthiazol-2-ylamino)-1,2,3,5,6,7,8,9,10,11,13a,14,14a,15,16,16a-hexadecahydrocyclopropa[e]pyrrolo[1,2-a][1,4]diazacyclopentadecin-2-yl acetate] | < 0.1 µM | 1 to 10 µM |
| O=C1N[C@]2(C(=O)NS(=O)(=O)C3CC3)C[C@H]2/C=C\CCCCC[C@H](Nc2nc(-c3ccc(F)cc3)cs2)C(=O)N2C[C@H](Oc3nc(-c4ccccc4)nc4ccccc34)C[C@@H]12 [Compound 204, (2R,6S,13aS,14aR,16aS,Z)-N-(cyclopropylsulfonyl)-6-(4-(4-fluorophenyl)thiazol-2-ylamino)-5,16-dioxo-2-(2-phenylquinazolin-4-yloxy)-1,2,3,5,6,7,8,9,10,11,13a,14,14a,15,16,16a-hexadecahydrocyclopropa[e]pyrrolo[1,2-a][1,4]diazacyclopentadecine-14a-carboxamide] | < 0.1 µM | < 0.1 µM |
| O=C1N[C@]2(C(=O)NS(=O)(=O)C3CC3)C[C@H]2/C=C\CCCCC[C@H](Nc2nc3c(s2)CCC3)C(=O)N2C[C@H](OC(=O)N3Cc4cccc(F)c4C3)C[C@@H]12 [Compound 206] | < 0.1 µM | 0.1 to 1 µM |
| O=C1N[C@]2(C(=O)NS(=O)(=O)C3CC3)C[C@H]2/C=C\CCCCC[C@H](Nc2nc(-c3ccc(Cl)cc3)cs2)C(=O)N2C[C@H](OC(=O)N3Cc4cccc(F)c4C3)C[C@@H]12 [Compound 207] | < 0.1 µM | < 0.1 µM |
| O=C1N[C@]2(C(=O)NS(=O)(=O)C3CC3)C[C@H]2/C=C\CCCCC[C@H](Nc2nc(-c3ccc(F)cc3)cs2)C(=O)N2C[C@H](OC(=O)N3Cc4cccc(F)c4C3)C[C@@H]12 [Compound 208] | < 0.1 µM | < 0.1 µM |
| O=C1N[C@]2(C(=O)NS(=O)(=O)C3CC3)C[C@H]2/C=C\CCCCC[C@H](Nc2nc(-c3ccccc3Cl)cs2)C(=O)N2C[C@H](OC(=O)N3Cc4cccc(F)c4C3)C[C@@H]12 [Compound 209] | < 0.1 µM | < 0.1 µM |
| O=C1N[C@]2(C(=O)NS(=O)(=O)C3CC3)C[C@H]2/C=C\CCCCC[C@H](Nc2nc(-c3ccncc3)cs2)C(=O)N2C[C@H](OC(=O)N3Cc4cccc(F)c4C3)C[C@@H]12 [Compound 210] | < 0.1 µM | < 0.1 µM |
| N#Cc1ccc(-c2csc(N[C@H]3CCCCC/C=C\[C@@H]4C[C@@]4(C(=O)NS(=O)(=O)C4CC4)NC(=O)[C@@H]4C[C@@H](OC(=O)N5Cc6cccc(F)c6C5)CN4C3=O)n2)cc1 [Compound 211] | < 0.1 µM | < 0.1 µM |
| O=C1N[C@]2(C(=O)NS(=O)(=O)C3CC3)C[C@H]2/C=C\CCCCC[C@H](Nc2nc(-c3ccccn3)cs2)C(=O)N2C[C@H](OC(=O)N3Cc4cccc(F)c4C3)C[C@@H]12 [Compound 212] | < 0.1 µM | < 0.1 µM |
| CS(=O)(=O)c1ccc(-c2csc(N[C@H]3CCCCC/C=C\[C@@H]4C[C@@]4(C(=O)NS(=O)(=O)C4CC4)NC(=O)[C@@H]4C[C@@H](OC(=O)N5Cc6cccc(F)c6C5)CN4C3=O)n2)cc1 [Compound 213] | < 0.1 µM | < 0.1 µM |
| CC(C)(C)OC(=O)N[C@H]1CCCCC/C=C\[C@@H]2C[C@@]2(C(=O)NS(=O)(=O)c2ccc(Cl)s2)NC(=O)[C@@H]2C[C@@H](OC(=O)N3Cc4cccc(F)c4C3)CN2C1=O [Compound 323] | – | < 0.1 µM |
| CCC(C)(C)OC(=O)N[C@H]1CCCCC/C=C\[C@@H]2C[C@@]2(C(=O)NS(=O)(=O)C2CC2)NC(=O)[C@@H]2C[C@@H](OC(=O)N3Cc4cccc(F)c4C3)CN2C1=O [Compound 431] | – | < 0.1 µM |
| CCC(C)(C)OC(=O)N[C@H]1CCCCC/C=C\[C@@H]2C[C@@]2(C(=O)NS(=O)(=O)C2CC2)NC(=O)[C@@H]2C[C@@H](OC(=O)N3Cc4cccc(F)c4C3)CN2C1=O [Compound 438] | – | 0.1 to 1 µM |
| CC(C)(C)OC(=O)N[C@H]1CCCCC/C=C\[C@@H]2C[C@@]2(C(=O)NOCC2CC2)NC(=O)[C@@H]2C[C@@H](OC(=O)N3Cc4cccc(F)c4C3)CN2C1=O [Compound 717] | < 0.1 µM | – |
| Cc1ccccc1ONC(=O)[C@@]12C[C@H]1CCCCCCC[C@H](NC(=O)OC(C)(C)C)C(=O)N1C[C@H](OC(=O)N3Cc4cccc(F)c4C3)C[C@H]1C(=O)N2 [Compound 804] | < 0.1 µM | – |
| CC(C)(C)OC(=O)N[C@H]1CCCCCC2CC2[C@@H]2C[C@@]2(C(=O)NOc2ccccc2)NC(=O)[C@@H]2C[C@@H](OC(=O)N3Cc4cccc(F)c4C3)CN2C1=O (some centres unmarked) [Compound 906] | < 0.1 µM | – |
| CC(C)(C)OC(=O)N[C@H]1CCCCCC2C([C@@H]3C[C@@]3(C(=O)NS(=O)(=O)C3CC3)NC(=O)[C@@H]3C[C@@H](OC(=O)N4Cc5cccc(F)c5C4)CN3C1=O)C2(Cl)Cl (some centres unmarked) [Compound 907] | 0.1 to 1 µM | – |
